{"source": "patent US20230263770A1", "about": "“THERAPY OF POST-OPERATIVE NAUSEA AND VOMITING” (ACACIA PHARMA LTD, priority 2020, published 2023)", "key": {"[1]": {"test_system": "patients who had not received prior prophylaxis", "experiment": "Clinical trial, treatment of PONV in patients without prior prophylaxis", "format": "in vivo, human", "settings": "doses of 5 mg and 10 mg; no difference between the doses", "experimental": "In another clinical trial conducted by the applicant, amisulpride at doses of 5 mg and 10 mg were compared with placebo for the treatment of PONV, in patients who had not received prior prophylaxis."}, "[2]": {"test_system": "adult surgical patients at moderate-to-high risk of suffering PONV", "experiment": "Two Phase III placebo-controlled trials, PONV prophylaxis", "format": "in vivo, human", "settings": "5 mg, 626 evaluable patients, vs 59% placebo, p<0.01"}, "[3]": {"test_system": "patients having a high BMI (≥30)", "experiment": "Study 1: prophylaxis of PONV in patients with a high BMI (complete response and secondary endpoints)", "format": "in vivo, human", "settings": "for CR (PONV) 0-2 hours / CR (PONV) 0-24 hours / CR (emesis) / CR (nausea) / CR (severe nausea): prophylactic therapy, 5 mg", "experimental": "(§1) A randomised, double-blind, placebo-controlled study of amisulpride for IV injection as treatment against post-operative nausea and vomiting in patients having a high BMI (≥30) was conducted. The primary aim of the study was to compare the efficacy of 5 mg and 10 mg amisulpride to placebo as treatment or prevention of PONV, in patients with a high BMI.\n(§2) The study was performed in adult patients (≥18 years) having a BMI ≥30 who were undergoing elective ambulatory (day-case) or in-patient surgery under general inhalational anaesthesia for an expected duration of at least one hour from induction of anaesthesia to extubation.\n(§3) Amisulpride at a dose of 5 mg (prophylaxis) or 10 mg (rescue treatment) or matching placebo was given once by slow IV administration, over about 2 minutes.\n(§4) The primary efficacy variable was the absence or presence of PONV during the 24-hour post-operative period, where PONV was defined as the occurrence of one or more emetic episodes (vomiting and/or retching) or the receipt of one or more doses of rescue anti-emetic medication in the 24 hours after wound closure (prophylaxis study) or dosing (treatment study). Absence of PONV by this definition was termed “Complete Response” (CR). A number of secondary variables were evaluated including the occurrence of emesis (vomiting and/or retching).\n(§5) A comparison of the incidence of CR in the 0-2 and 0-24 hour periods after surgery between the amisulpride group and the placebo group using Pearson's X2 test with Yates's continuity correction at a one-sided significance level of 2.5%. The primary efficacy analysis population was the modified intent-to-treat (mITT) population.\nSecondary efficacy variables assessed by incidence (e.g., emesis) were compared between the groups using Pearson's X2 test."}, "[4]": {"test_system": "patients having a high BMI (≥30)", "experiment": "Study 1: prophylaxis of PONV in patients with a high BMI (complete response and secondary endpoints)", "format": "in vivo, human", "settings": "IV 5 mg + another antiemetic"}, "[5]": {"test_system": "patients undergoing bariatric surgery", "experiment": "Study 1: treatment-emergent adverse events in patients undergoing bariatric surgery", "format": "in vivo, human", "settings": "5 mg prophylaxis or 10 mg rescue treatment, n = 53", "experimental": "(§6) The present invention is based on the results of a Phase III study of amisulpride as prophylaxis against PONV in high-risk patients, conducted by the applicant. The Phase III study results include data from two randomized, double-blind, placebo-controlled, multi-centre Phase III trials of amisulpride, either as a prophylaxis, or rescue treatment for PONV.\nas §3"}, "[6]": {"test_system": "adult surgical patients at moderate-to-high risk of suffering PONV", "experiment": "Phase II dose-ranging trial, IV amisulpride as PONV prophylaxis", "format": "in vivo, human", "settings": "for incidence of PONV: prophylaxis", "experimental": "In a multi-centre, double-blind, randomised, dose-ranging Phase II trial (conducted by the applicant), amisulpride was given intravenously to adult surgical patients at moderate-to-high risk of suffering PONV (prophylaxis), at doses of 1 mg, 5 mg and 20 mg, with a fourth group receiving placebo."}, "[7]": {"test_system": "bariatric surgery patients", "experiment": "Study 1: complete response in bariatric surgery patients (prophylaxis and rescue treatment)", "format": "in vivo, human", "experimental": "as §6, §3, §4"}, "[8]": {"test_system": "patients with BMI ≥35", "experiment": "Study 1: treatment-emergent adverse events, prophylaxis in patients with BMI ≥35", "format": "in vivo, human", "experimental": "as §1, §2, §3"}, "[9]": {"test_system": "adult surgical patients at high risk of suffering PONV", "experiment": "Phase III trial, amisulpride in combination with a standard anti-emetic, PONV prophylaxis", "format": "in vivo, human", "settings": "5 mg in combination with a standard anti-emetic, 1147 evaluable patients; vs 53% placebo combination, p<0.001"}, "[10]": {"test_system": "patients having a high BMI (≥30)", "experiment": "Study 1: rescue treatment of PONV in patients with a high BMI", "format": "in vivo, human", "settings": "for CR (PONV), rescue treatment: 10 mg", "experimental": "as §1, §2, §3, §4, §5"}, "[11]": {"settings": "compared to the (R+)-enantiomer; cited from earlier work"}, "[12]": {"settings": "prophylaxis, IV 5 mg + another antiemetic, BMI ≥35, mITT, P 0.011"}, "[13]": {"settings": "5 mg prophylaxis, BMI ≥35, n = 149"}}, "note": "“Also recorded” adds a separate entry of the source.", "data": [{"smiles": "CCN1CCCC1CNC(=O)c1cc(S(=O)(=O)CC)c(N)cc1OC", "note": "(racemic) [Amisulpride, amisulpride]", "values": [{"measurement": "treating PONV compared to placebo", "setting": "[1]", "value": "significantly better than placebo"}, {"measurement": "incidence of PONV", "setting": "[2]", "value": 48, "unit": "%"}, {"measurement": "CR (0-24 h), patients with CR/total", "setting": "[3]; 5 mg prophylaxis, BMI ≥35, 42/129 for placebo", "value": "71/149"}, {"measurement": "secondary endpoints compared to placebo (FIGS. 1 and 2)", "setting": "[3]; 5 mg prophylaxis, BMI ≥35, all secondary endpoints with the exception of emesis", "value": "statistically significantly superior to placebo"}, {"measurement": "preventing PONV at 24 hours compared to placebo", "setting": "[3]; 5 mg prophylaxis, overall study population and particularly BMI ≥35 subgroup", "value": "more effective than placebo"}, {"measurement": "absolute risk reduction, amisulpride versus placebo", "setting": "[3]; patients with BMI ≥35 (printed 235), 0-24 h", "value": 15.10}, {"measurement": "absolute risk reduction, amisulpride versus placebo", "setting": "[3]; patients with a BMI <35, 0-24 h", "value": 10.50}, {"measurement": "relative risk reduction (RRR) of the incidence of PONV", "setting": "[3]; patients with a high BMI (printed 230), compared to RRR of the overall risk of PONV", "value": "much higher than expected"}, {"measurement": "CR (PONV) 0-2 hours", "setting": "[3]; BMI ≥30, 251 patients", "value": 53.0, "unit": "%"}, {"measurement": "CR (PONV) 0-24 hours", "setting": "[3]; BMI ≥30, 251 patients", "value": 53.0, "unit": "%"}, {"measurement": "CR (emesis)", "setting": "[3]; BMI ≥30, 251 patients", "value": "12.6% (251 patients)"}, {"measurement": "CR (nausea)", "setting": "[3]; BMI ≥30, 251 patients", "value": "55.0% (251 patients)"}, {"measurement": "CR (severe nausea)", "setting": "[3]; BMI ≥30, 251 patients", "value": "41.8% (251 patients)"}, {"measurement": "CR (emesis)", "setting": "[3]; BMI ≥35, 149 patients", "value": "14.8% (149 patients)"}, {"measurement": "CR (nausea)", "setting": "[3]; BMI ≥35, 149 patients", "value": "58.4% (149 patients)"}, {"measurement": "CR (severe nausea)", "setting": "[3]; BMI ≥35, 149 patients", "value": "45.0% (149 patients)"}, {"measurement": "CR (PONV) 0-2 hours", "setting": "[3]; BMI ≥35, 149 patients, p = 0.002", "value": "73.8% (p = 0.002)"}, {"measurement": "CR (PONV) 0-24 hours", "setting": "[3]; BMI ≥35, 149 patients, p = 0.01", "value": "47.7% (p = 0.01)"}, {"measurement": "CR (0-24 h)", "setting": "[3]; [12]", "value": "(47.7%)"}, {"measurement": "CR (0-24 h), patients with CR/total", "setting": "[3]; [12]", "value": "71/149"}, {"measurement": "preventing PONV compared to placebo", "setting": "[3]; prophylaxis, patients with a high BMI", "value": "more effective than placebo"}, {"measurement": "safety and efficacy for prevention or treatment of PONV (overall conclusion)", "setting": "[3]; single IV dose, patients with a high BMI and bariatric surgery population, post-hoc analysis", "value": "safe and effective; also recorded: safe and efficacious"}, {"measurement": "CR (0-24 h)", "setting": "[4]; BMI <35, mITT, P 0.002", "value": "(61.2%)"}, {"measurement": "CR (0-24 h), patients with CR/total", "setting": "[4]; BMI <35, mITT, P 0.002", "value": "259/423"}, {"measurement": "CR (0-24 h)", "setting": "[4]; all patients, mITT, P <0.001", "value": "(57.7%)"}, {"measurement": "CR (0-24 h), patients with CR/total", "setting": "[4]; all patients, mITT, P <0.001", "value": "330/572"}, {"measurement": "Number of patients with any adverse event", "setting": "[5]", "value": 30, "unit": "n"}, {"measurement": "Patients with any adverse event", "setting": "[5]", "value": "(57) %"}, {"measurement": "incidence of PONV", "setting": "[6]; 1 mg intravenously, p<0.05 vs placebo (69%)", "value": 48, "unit": "%"}, {"measurement": "incidence of PONV", "setting": "[6]; 5 mg intravenously, p<0.01 vs placebo (69%)", "value": 40, "unit": "%"}, {"measurement": "incidence of PONV compared to placebo", "setting": "[6]; all amisulpride groups (1 mg, 5 mg and 20 mg)", "value": "lower"}, {"measurement": "complete response rate (after 24 hours) compared to placebo", "setting": "[7]; bariatric surgery patients, amisulpride prophylaxis or rescue treatment", "value": "higher"}, {"measurement": "complete response rate at 24 hours", "setting": "[7]; bariatric surgery, amisulpride prophylaxis (5 mg), vs 7.3% placebo, P=0.16", "value": 18.2, "unit": "%"}, {"measurement": "complete response rate at 24 hours", "setting": "[7]; bariatric surgery, amisulpride rescue treatment (10 mg), vs 9.1% placebo, P=0.17", "value": 25.0, "unit": "%"}, {"measurement": "complete response at 24 hours, patients/total", "setting": "[7]; combined prophylaxis and rescue treatment bariatric subgroup, placebo 5/63", "value": "11/53"}, {"measurement": "complete response rate at 24 hours", "setting": "[7]; combined prophylaxis and rescue treatment bariatric subgroup, placebo 7.9%", "value": 20.8, "unit": "%"}, {"measurement": "effectiveness for prophylaxis and rescue treatment of PONV in bariatric surgery patients vs other surgery types", "setting": "[7]; human, in vivo", "value": "as effective"}, {"measurement": "Number of patients with any adverse event", "setting": "[8]; [13]", "value": 79, "unit": "n"}, {"measurement": "Patients with any adverse event", "setting": "[8]; [13]", "value": "(53) %"}, {"measurement": "incidence of any treatment-emergent adverse events (TEAE) or serious adverse events (SAE), amisulpride vs placebo", "setting": "[8]; high BMI and bariatric subgroups", "value": "No material difference"}, {"measurement": "incidence of PONV", "setting": "[9]", "value": 42, "unit": "%"}, {"measurement": "CR (PONV), rescue treatment", "setting": "[10]; BMI ≥30, 251 patients", "value": "46.6% (251 patients)"}, {"measurement": "CR (PONV), rescue treatment", "setting": "[10]; BMI ≥35, 149 patients", "value": "51.7% (149 patients)"}, {"measurement": "effectiveness as rescue treatment for PONV", "setting": "[10]; dose of 10 mg, prior prophylaxis drug given, high (≥30) BMI and/or bariatric surgery patients", "value": "particularly effective"}, {"measurement": "CR rate, rescue treatment compared to placebo", "setting": "[10]; patients with a high BMI", "value": "higher"}]}, {"smiles": "CCN1CCCC1CNC(=O)c1cc(S(=O)(=O)CC)c(N)cc1OC", "note": "(single isomer, unassigned) [(S−)-enantiomer, (S−)-amisulpride]", "values": [{"measurement": "share of the therapeutic activity of amisulpride", "setting": "[11]", "value": "almost all of the therapeutic activity"}]}]}
